# Measurements taken from patent publication US8629173B2, “Solid forms comprising (+)-2-[1-(3-ethoxy-4-methoxyphenyl)-2-methylsulfonylethyl]-4-acetylaminoisoindoline-1,3-dione, compositions thereof, and uses thereof” (Celgene Corporation, priority 2002, dated 2014).
# Key:
# [1] = biological target: PDE5 from human platelets (Homo sapiens, UniProt O76074); assay: PDE5 enzyme assay; assay type: biochemical
# [2] = biological target: T1, PDE6 from bovine retinal rod outer segments (Bos taurus, UniProt P11541+P23439); assay: PDE6 enzyme assay; assay type: biochemical
# T1 construct: PDE6 from bovine retinal rod outer segments; from tissue; host or cells: bovine retinal rod outer segments
# T1 sequence (P11541 2-856 limits assumed): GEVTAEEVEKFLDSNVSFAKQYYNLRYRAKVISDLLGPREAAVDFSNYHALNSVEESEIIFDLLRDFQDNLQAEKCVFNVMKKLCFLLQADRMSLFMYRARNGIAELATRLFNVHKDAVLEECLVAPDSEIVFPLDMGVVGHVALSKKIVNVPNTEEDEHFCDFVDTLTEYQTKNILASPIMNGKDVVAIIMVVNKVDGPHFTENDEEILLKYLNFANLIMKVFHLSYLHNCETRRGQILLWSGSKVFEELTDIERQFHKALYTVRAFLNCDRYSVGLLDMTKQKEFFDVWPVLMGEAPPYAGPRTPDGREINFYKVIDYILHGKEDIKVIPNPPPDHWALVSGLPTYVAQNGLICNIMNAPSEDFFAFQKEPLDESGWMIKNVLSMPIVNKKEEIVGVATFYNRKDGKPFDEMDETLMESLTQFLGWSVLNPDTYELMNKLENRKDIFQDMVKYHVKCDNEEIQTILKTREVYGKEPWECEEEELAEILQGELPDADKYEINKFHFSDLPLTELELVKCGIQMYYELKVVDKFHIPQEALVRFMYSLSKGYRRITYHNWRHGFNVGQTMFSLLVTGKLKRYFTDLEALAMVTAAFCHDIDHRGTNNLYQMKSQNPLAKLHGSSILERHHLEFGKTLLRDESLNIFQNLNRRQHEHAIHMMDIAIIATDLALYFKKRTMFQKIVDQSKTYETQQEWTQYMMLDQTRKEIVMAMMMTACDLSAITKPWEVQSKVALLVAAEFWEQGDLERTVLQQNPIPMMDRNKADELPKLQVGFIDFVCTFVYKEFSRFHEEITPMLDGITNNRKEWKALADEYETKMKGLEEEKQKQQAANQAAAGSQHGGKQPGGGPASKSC
# T1 sequence (P23439 2-850 limits assumed): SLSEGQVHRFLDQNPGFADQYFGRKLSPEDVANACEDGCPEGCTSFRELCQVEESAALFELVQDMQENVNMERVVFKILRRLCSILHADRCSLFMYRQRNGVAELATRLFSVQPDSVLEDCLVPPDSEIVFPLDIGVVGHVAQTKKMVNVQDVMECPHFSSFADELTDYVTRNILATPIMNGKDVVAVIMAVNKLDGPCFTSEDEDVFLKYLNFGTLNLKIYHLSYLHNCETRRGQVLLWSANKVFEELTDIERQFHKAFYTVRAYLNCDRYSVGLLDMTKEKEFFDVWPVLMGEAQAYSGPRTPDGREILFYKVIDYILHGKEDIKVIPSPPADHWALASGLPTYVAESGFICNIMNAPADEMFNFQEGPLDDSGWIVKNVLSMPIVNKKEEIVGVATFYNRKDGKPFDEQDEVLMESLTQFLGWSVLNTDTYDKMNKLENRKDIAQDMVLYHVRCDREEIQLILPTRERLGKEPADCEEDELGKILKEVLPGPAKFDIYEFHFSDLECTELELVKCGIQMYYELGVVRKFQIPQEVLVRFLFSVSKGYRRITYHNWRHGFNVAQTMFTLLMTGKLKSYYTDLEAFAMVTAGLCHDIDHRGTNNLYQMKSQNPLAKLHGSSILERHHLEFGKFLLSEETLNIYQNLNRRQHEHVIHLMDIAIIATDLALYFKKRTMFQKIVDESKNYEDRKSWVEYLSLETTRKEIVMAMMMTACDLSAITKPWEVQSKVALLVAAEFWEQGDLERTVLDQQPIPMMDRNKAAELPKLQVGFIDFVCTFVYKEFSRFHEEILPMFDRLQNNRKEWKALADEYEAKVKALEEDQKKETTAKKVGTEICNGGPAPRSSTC
# [3] = tested on: severe plaque-type psoriasis; assay: Phase 2 open-label pilot study in patients with severe plaque-type psoriasis
# [4] = 20 mg orally daily for 29 days plus follow-up
# [5] = 20 mg orally daily, 29 days, 17 evaluable
# [6] = 20 mg orally daily, Day 29, 8 responders
# [7] = 20 mg orally daily, Day 29, 19 enrolled
# [8] = 20 mg orally daily, Day 29, of enrolled patients
# [9] = Nonresponder, 20 mg orally daily
structure (smiles),measurement,setting,value
"CCOc1cc(C(CS(C)(=O)=O)N2C(=O)c3cccc(NC(C)=O)c3C2=O)ccc1OC (single isomer, unassigned; (+)) [Compound A, (+)-2-[1-(3-ethoxy-4-methoxyphenyl)-2-methylsulfonylethyl]-4-acetylaminoisoindoline-1,3-dione]",PDE Specificity Ratio PDE4/PDE5,[1]; from Table 1 data,>30000 fold
same,inhibition at 10 µM,[1]; read-out: PDE5 (% inhib at 10 μM),3%
same,PDE Specificity Ratio PDE4/PDE6,[2]; from Table 1 data,>40000 fold
same,inhibition at 10 µM,[2]; read-out: PDE6 (% inhib at 10 μM),-6%
same,patients with abnormal HLA-DR that had normal HLA-DR at Day 29,[3]; 20 mg orally daily,Two
same,patients with abnormal ICAM-1 at baseline that had normal ICAM-1 at Day 29,[3]; 20 mg orally daily,Three
same,patients with abnormal K16 at baseline that had normal K16 at Day 29,[3]; 20 mg orally daily,one
same,patients with abnormal fillagrin at baseline that had normal fillagrin at Day 29,[3]; 20 mg orally daily,three
same,treatment-related adverse event: headache,[3]; 20 mg orally daily for 29 days,26.3%
same,treatment-related adverse event: nausea,[3]; 20 mg orally daily for 29 days,15.8%
same,deaths,[3]; [4],No deaths
same,premature discontinuation due to an adverse event,[3]; [4],nor did any patient prematurely discontinue due to an adverse event
same,patients with evaluable biopsies demonstrating a 20% reduction in epidermal skin thickness,"[3]; 20 mg orally daily for 29 days, Day 29, 15 evaluable",53.3%
same,evaluable patients demonstrating improvement in static Physician's Global Assessment (sPGA),[3]; [5],52.9%
same,evaluable patients showing a reduction from baseline in psoriasis body surface area (BSA),[3]; [5],58.8%
same,mean reduction from baseline in dermal CD83+ cells in responders,"[3]; 20 mg orally daily, Day 29",25.86%
same,mean reduction from baseline in epidermal CD83+ cells in responders,"[3]; 20 mg orally daily, Day 29",32.50%
same,reduction of CD11c cells in the dermis in responders,"[3]; 20 mg orally daily, Day 29",18.50%
same,reduction of CD11c cells in the epidermis in responders,"[3]; 20 mg orally daily, Day 29",40.16%
same,decrease of dermal T-cells in responders,[3]; [6],28.79%
same,decrease of epidermal T-cells in responders,[3]; [6],42.56%
same,enrolled subjects demonstrating improvement in PASI,[3]; [7],73.7%
same,patients showing >50% reduction from baseline in total PASI score,[3]; [7],15.8%
same,mean reduction of epidermal thickness,"[3]; 20 mg orally daily, Day 29, all 15 evaluable subjects, p=0.015",20.5%
same,enrolled patients showing a reduction from baseline in psoriasis BSA,[3]; [8],52.6%
same,enrolled patients showing an improvement in sPGA,[3]; [8],47.4%
same,overall safety,[3]; 20 mg p.o. QD for 29 days,safe
same,"Percentage Reduction at Day 29: CD11c, Dermis",[3]; [9],−21.19%
same,"Percentage Reduction at Day 29: CD11c, Epidermis",[3]; [9],−2.54%
same,"Percentage Reduction at Day 29: CD83+, Dermis",[3]; [9],+0.46%
same,"Percentage Reduction at Day 29: CD83+, Epidermis",[3]; [9],−16.31%
same,"Percentage Reduction at Day 29: T-cells, Dermis",[3]; [9],−17.34%
same,"Percentage Reduction at Day 29: T-cells, Epidermis",[3]; [9],+8.74%
same,"Percentage Reduction at Day 29: CD11c, Dermis","[3]; Responder, 20 mg orally daily",−18.50%
same,"Percentage Reduction at Day 29: CD11c, Epidermis","[3]; Responder, 20 mg orally daily",−40.16%
same,"Percentage Reduction at Day 29: CD83+, Dermis","[3]; Responder, 20 mg orally daily",−25.86%
same,"Percentage Reduction at Day 29: CD83+, Epidermis","[3]; Responder, 20 mg orally daily",−32.50%
same,"Percentage Reduction at Day 29: T-cells, Dermis","[3]; Responder, 20 mg orally daily",−28.79%
same,"Percentage Reduction at Day 29: T-cells, Epidermis","[3]; Responder, 20 mg orally daily",−42.56%
same,reduction of mRNA expression of iNOS in lesional skin (RT-PCR),"[3]; after 29 days of treatment, 20 mg orally daily, p=0.025",66.5%
